{"source": "patent US20070128217A1", "about": "(priority 2003, published 2007)", "key": {"[1]": {"tested_on": "antibodies in sera from SARS patients (sera 1a, 1b, 2, 6, 37, 62, London, SARS-yellow, SARS-green)", "format": "binding, human", "set-up": "Binding of serum 6 to linear peptides of protein X1 of SARS-CoV Urbani / Binding of serum 37 to linear peptides of protein X1 of SARS-CoV Urbani / Binding of serum 6 to looped/cyclic peptide (PEPSCAN-ELISA) / Binding of serum 37 to looped/cyclic peptide (PEPSCAN-ELISA) / Binding of serum 37 to looped/cyclic peptides of protein X1 of SARS-CoV Urbani / Binding of serum 6 to linear peptides of protein X2 / Binding of serum 37 to linear peptides of protein X2 / Binding of serum 37 to looped/cyclic peptides of protein X2 of SARS-CoV Urbani / Binding of serum 6 to linear peptides of protein M of SARS-CoV Urbani / Binding of serum 37 to linear peptides of protein M of SARS-CoV Urbani / Binding of serum 6 to looped/cyclic peptides of protein M of SARS-CoV Urbani / Binding of serum 37 to looped/cyclic peptides of protein M of SARS-CoV Urbani / Binding of serum 6 to linear peptides of protein X3 of SARS-CoV Urbani / Binding of serum 37 to linear peptides of protein X3 of SARS-CoV Urbani / Binding of serum 37 to looped/cyclic peptides of protein X3 of SARS-CoV Urbani / Binding of serum 6 to linear peptides of protein X4 of SARS-CoV Urbani / Binding of serum 37 to linear peptides of protein X4 of SARS-CoV Urbani / Binding of serum 37 to looped/cyclic peptides of protein X4 of SARS-CoV Urbani / Binding of serum 6 to linear peptides of protein X5 of SARS-CoV Urbani / Binding of serum 37 to linear peptides of protein X5 of SARS-CoV Urbani / Binding of serum 37 to looped/cyclic peptides of protein X5 of SARS-CoV Urbani / Binding of serum 6 to linear peptides of protein N of SARS-CoV Urbani / Binding of serum 37 to linear peptides of protein N of SARS-CoV Urbani / Binding of serum 6 to linear peptide (PEPSCAN-ELISA) / Binding of serum 1a to looped/cyclic peptides of protein N of SARS-CoV Urbani / Binding of serum 1b to looped/cyclic peptides of protein N of SARS-CoV Urbani / Binding of serum 2 to looped/cyclic peptides of protein N of SARS-CoV Urbani / Binding of serum 6 to looped/cyclic peptides of protein N of SARS-CoV Urbani / Binding of serum 37 to looped/cyclic peptides of protein N of SARS-CoV Urbani / Binding of serum 62 to looped/cyclic peptides of protein N of SARS-CoV Urbani / Binding of serum London to looped/cyclic peptides of protein N of SARS-CoV Urbani / Binding of serum SARS-green to looped/cyclic peptides of protein N of SARS-CoV Urbani: unit not given here"}, "[2]": {"tested_on": "control sera (pooled serum of ten healthy LUMC hospital workers; commercial negative donor pooled serum from the Dutch bloodbank)", "format": "binding, human", "set-up": "Binding of Control serum LUMC to linear peptides / Binding of Control serum Blood-bank to linear peptides / Binding of Control serum LUMC to looped peptides / Binding of Control Serum Blood-Bank to Looped peptides / Binding of Control serum LUMC to linear peptides of the protein M of SARS-CoV Urbani / Binding of Control serum Blood-bank to linear peptides of the protein M of SARS-CoV Urbani / Binding of Control serum LUMC to looped peptides of the protein M of SARS-CoV Urbani / Binding of Control Serum Blood-Bank to Looped peptides of the protein M of SARS-CoV Urbani: unit not given here"}, "[3]": {"tested_on": "rabbit serum obtained by immunizing a rabbit with the SARS-CoV strain Frankfurt 1", "format": "binding", "set-up": "Binding of a rabbit serum to linear peptides / Binding of a rabbit serum to looped peptides / Rabbit serum linear peptides / Rabbit serum looped peptides / Binding of a rabbit serum to linear peptides of protein N of SARS-CoV Urbani (Rabbit serum linear peptides) / Binding of a rabbit serum to looped/cyclic peptides of protein N of SARS-CoV Urbani (Rabbit serum looped peptides): unit not given here"}}, "data": [{"sequence": "HGYFTEVYYQLESTQ", "values": [{"measurement": "Binding of serum 1a to linear peptides of protein X1 of SARS-CoV Urbani", "setting": "[1]", "result": 0.6}, {"measurement": "Binding of serum 1a to looped/cyclic peptides of protein X1 of SARS-CoV Urbani", "setting": "[1]", "result": 0.5}, {"measurement": "Binding of serum 1b to linear peptides of protein X1 of SARS-CoV Urbani", "setting": "[1]", "result": 0.4}, {"measurement": "Binding of serum 1b to looped/cyclic peptides of protein X1 of SARS-CoV Urbani", "setting": "[1]", "result": 0.4}, {"measurement": "Binding of serum 2 to linear peptides of protein X1 of SARS-CoV Urbani", "setting": "[1]", "result": 0.4}, {"measurement": "Binding of serum 2 to looped/cyclic peptides of protein X1 of SARS-CoV Urbani", "setting": "[1]", "result": 0.4}, {"measurement": "Binding of serum 6 to linear peptides of protein X1 of SARS-CoV Urbani", "setting": "[1]", "result": 0.3}, {"measurement": "Binding of serum 6 to looped/cyclic peptides of protein X1 of SARS-CoV Urbani", "setting": "[1]", "result": 0.3}, {"measurement": "Binding of serum 37 to linear peptides of protein X1 of SARS-CoV Urbani", "setting": "[1]", "result": 0.4}, {"measurement": "Binding of serum 37 to looped/cyclic peptides of protein X1 of SARS-CoV Urbani", "setting": "[1]", "result": 0.5}, {"measurement": "Binding of serum 62 to linear peptides of protein X1 of SARS-CoV Urbani", "setting": "[1]", "result": 0.4}, {"measurement": "Binding of serum 62 to looped/cyclic peptides of protein X1 of SARS-CoV Urbani", "setting": "[1]", "result": 0.5}, {"measurement": "Binding of serum London to linear peptides of protein X1 of SARS-CoV Urbani", "setting": "[1]", "result": 0.2}, {"measurement": "Binding of serum London to looped/cyclic peptides of protein X1 of SARS-CoV Urbani", "setting": "[1]", "result": 0.2}, {"measurement": "Binding of serum SARS-green to linear peptides of protein X1 of SARS-CoV Urbani", "setting": "[1]", "result": 0.2}, {"measurement": "Binding of serum SARS-green to looped/cyclic peptides of protein X1 of SARS-CoV Urbani", "setting": "[1]", "result": 0.3}, {"measurement": "Binding of serum SARS-yellow to linear peptides of protein X1 of SARS-CoV Urbani", "setting": "[1]", "result": 0.0}, {"measurement": "Binding of serum SARS-yellow to looped/cyclic peptides of protein X1 of SARS-CoV Urbani", "setting": "[1]", "result": 0.4}, {"measurement": "Binding of Control Serum Blood-Bank to Looped peptides", "setting": "[2]", "result": 0.5}, {"measurement": "Binding of Control serum Blood-bank to linear peptides", "setting": "[2]", "result": 0.4}, {"measurement": "Binding of Control serum LUMC to linear peptides", "setting": "[2]", "result": 0.3}, {"measurement": "Binding of Control serum LUMC to looped peptides", "setting": "[2]", "result": 0.5}, {"measurement": "Binding of a rabbit serum to linear peptides", "setting": "[3]", "result": 0.1}, {"measurement": "Binding of a rabbit serum to looped peptides", "setting": "[3]", "result": 0.5}]}, {"sequence": "DLPKEITVATSRTLS", "values": [{"measurement": "Binding of serum 1a to linear peptides of protein M of SARS-CoV Urbani", "setting": "[1]", "result": 0.7}, {"measurement": "Binding of serum 1a to looped/cyclic peptides of protein M of SARS-CoV Urbani", "setting": "[1]", "result": 0.5}, {"measurement": "Binding of serum 1b to linear peptides of protein M of SARS-CoV Urbani", "setting": "[1]", "result": 0.2}, {"measurement": "Binding of serum 1b to looped/cyclic peptides of protein M of SARS-CoV Urbani", "setting": "[1]", "result": 0.5}, {"measurement": "Binding of serum 2 to linear peptides of protein M of SARS-CoV Urbani", "setting": "[1]", "result": 0.7}, {"measurement": "Binding of serum 2 to looped/cyclic peptides of protein M of SARS-CoV Urbani", "setting": "[1]", "result": 0.6}, {"measurement": "Binding of serum 6 to linear peptides of protein M of SARS-CoV Urbani", "setting": "[1]", "result": 0.2}, {"measurement": "Binding of serum 6 to looped/cyclic peptides of protein M of SARS-CoV Urbani", "setting": "[1]", "result": 0.8}, {"measurement": "Binding of serum 37 to linear peptides of protein M of SARS-CoV Urbani", "setting": "[1]", "result": 0.5}, {"measurement": "Binding of serum 37 to looped/cyclic peptides of protein M of SARS-CoV Urbani", "setting": "[1]", "result": 0.7}, {"measurement": "Binding of serum 62 to linear peptides of protein M of SARS-CoV Urbani", "setting": "[1]", "result": 0.7}, {"measurement": "Binding of serum 62 to looped/cyclic peptides of protein M of SARS-CoV Urbani", "setting": "[1]", "result": 0.6}, {"measurement": "Binding of serum London to linear peptides of protein M of SARS-CoV Urbani", "setting": "[1]", "result": 0.3}, {"measurement": "Binding of serum London to looped/cyclic peptides of protein M of SARS-CoV Urbani", "setting": "[1]", "result": 0.4}, {"measurement": "Binding of serum SARS-green to linear peptides of protein M of SARS-CoV Urbani", "setting": "[1]", "result": 0.3}, {"measurement": "Binding of serum SARS-green to looped/cyclic peptides of protein M of SARS-CoV Urbani", "setting": "[1]", "result": 0.4}, {"measurement": "Binding of serum SARS-yellow to linear peptides of protein M of SARS-CoV Urbani", "setting": "[1]", "result": 0.0}, {"measurement": "Binding of serum SARS-yellow to looped/cyclic peptides of protein M of SARS-CoV Urbani", "setting": "[1]", "result": 0.7}, {"measurement": "Binding of Control Serum Blood-Bank to Looped peptides of the protein M of SARS-CoV Urbani", "setting": "[2]", "result": 0.7}, {"measurement": "Binding of Control serum Blood-bank to linear peptides of the protein M of SARS-CoV Urbani", "setting": "[2]", "result": 0.5}, {"measurement": "Binding of Control serum LUMC to linear peptides of the protein M of SARS-CoV Urbani", "setting": "[2]", "result": 0.2}, {"measurement": "Binding of Control serum LUMC to looped peptides of the protein M of SARS-CoV Urbani", "setting": "[2]", "result": 0.7}, {"measurement": "Rabbit serum linear peptides", "setting": "[3]", "result": 0.1}, {"measurement": "Rabbit serum looped peptides", "setting": "[3]", "result": 0.3}]}, {"sequence": "VLAAVYRINWVTGGI", "values": [{"measurement": "Binding of serum 1a to linear peptides of protein M of SARS-CoV Urbani", "setting": "[1]", "result": 0.8}, {"measurement": "Binding of serum 1a to looped/cyclic peptides of protein M of SARS-CoV Urbani", "setting": "[1]", "result": 0.6}, {"measurement": "Binding of serum 1b to linear peptides of protein M of SARS-CoV Urbani", "setting": "[1]", "result": 0.7}, {"measurement": "Binding of serum 1b to looped/cyclic peptides of protein M of SARS-CoV Urbani", "setting": "[1]", "result": 0.5}, {"measurement": "Binding of serum 2 to linear peptides of protein M of SARS-CoV Urbani", "setting": "[1]", "result": 0.7}, {"measurement": "Binding of serum 2 to looped/cyclic peptides of protein M of SARS-CoV Urbani", "setting": "[1]", "result": 0.6}, {"measurement": "Binding of serum 6 to linear peptides of protein M of SARS-CoV Urbani", "setting": "[1]", "result": 0.5}, {"measurement": "Binding of serum 6 to looped/cyclic peptides of protein M of SARS-CoV Urbani", "setting": "[1]", "result": 0.7}, {"measurement": "Binding of serum 37 to linear peptides of protein M of SARS-CoV Urbani", "setting": "[1]", "result": 0.6}, {"measurement": "Binding of serum 37 to looped/cyclic peptides of protein M of SARS-CoV Urbani", "setting": "[1]", "result": 0.6}, {"measurement": "Binding of serum 62 to linear peptides of protein M of SARS-CoV Urbani", "setting": "[1]", "result": 0.6}, {"measurement": "Binding of serum 62 to looped/cyclic peptides of protein M of SARS-CoV Urbani", "setting": "[1]", "result": 0.5}, {"measurement": "Binding of serum London to linear peptides of protein M of SARS-CoV Urbani", "setting": "[1]", "result": 0.4}, {"measurement": "Binding of serum London to looped/cyclic peptides of protein M of SARS-CoV Urbani", "setting": "[1]", "result": 0.2}, {"measurement": "Binding of serum SARS-green to linear peptides of protein M of SARS-CoV Urbani", "setting": "[1]", "result": 0.6}, {"measurement": "Binding of serum SARS-green to looped/cyclic peptides of protein M of SARS-CoV Urbani", "setting": "[1]", "result": 0.2}, {"measurement": "Binding of serum SARS-yellow to linear peptides of protein M of SARS-CoV Urbani", "setting": "[1]", "result": 0.2}, {"measurement": "Binding of serum SARS-yellow to looped/cyclic peptides of protein M of SARS-CoV Urbani", "setting": "[1]", "result": 0.6}, {"measurement": "Binding of Control Serum Blood-Bank to Looped peptides of the protein M of SARS-CoV Urbani", "setting": "[2]", "result": 0.8}, {"measurement": "Binding of Control serum Blood-bank to linear peptides of the protein M of SARS-CoV Urbani", "setting": "[2]", "result": 0.9}, {"measurement": "Binding of Control serum LUMC to linear peptides of the protein M of SARS-CoV Urbani", "setting": "[2]", "result": 1.0}, {"measurement": "Binding of Control serum LUMC to looped peptides of the protein M of SARS-CoV Urbani", "setting": "[2]", "result": 0.8}, {"measurement": "Rabbit serum linear peptides", "setting": "[3]", "result": 0.3}, {"measurement": "Rabbit serum looped peptides", "setting": "[3]", "result": 0.0}]}]}
